Results taken from US20250368651A1 (priority 2022, published 2025).
Read-outs that look alike come from different tables or passages of the source.

Legend:
[1] = biological target: DNA Seq9 TTAAGGAAGTT; experiment: FP binding assay, DNA Seq9; conditions: Seq 9 TTAAGGAAGTT; 0.5 μM SMN-C2
Procedure: (§1) All synthetic DNA and RNA oligomers were purchased from Integrated DNA Technologies and reconstituted in nuclease-free water (Invitrogen #AM9932) at 1 mM. The concentration of the oligonucleotides at ˜0.1 mM was calibrated with the A260 value measured by a NanoDrop ND-1000 (Thermo, Waltham, MA, USA) and the predicted extinction coefficient (http://www.oligoevaluator.com) using Lamber-Beer's Law. The risdiplam analogues (1 mM in DMSO) were diluted in 2× assay buffer (40 mM HEPES, 200 mM NaCl for RNA; 40 mM HEPES, 200 mM NaCl, 1 mM MgCl2 for DNA) to make a 1 μM 2× working solution.
(§2) A 1:2 dilution series (8 points) of each oligonucleotide was prepared in 20-30 μL water to desired concentrations (i.e., 1-128 μM). […] For fluorescence polarization measurement, 20 μL of the above 1× working solution was transferred into a 384-well, black, F-bottom microplates (Greiner Bio-One) in duplicates or triplicates. The plate was equilibrated at room temperature for 5 min before being read using a microplate reader (SYNERGY H1, BioTek; Excitation/Emission=360/460 nm) at 25° C. […] The mixture was then transferred into a microplate (20 μL each well) in duplicates for fluorescence polarization readout. The experimental data were analyzed using Prism 8 software (Graphpad Software, San Diego, CA, USA).

[2] = biological target: DNA Seq11 TGGAGGAAGGT; experiment: FP binding assay, DNA Seq11; conditions: Seq 11 TGGAGGAAGGT; 0.5 μM SMN-C2
Procedure: as §1, §2

[3] = biological target: DNA Seq12 TGAAAGAAGGT; experiment: FP binding assay, DNA Seq12; conditions: Seq 12 TGAAAGAAGGT; 0.5 μM SMN-C2
Procedure: as §1, §2

[4] = biological target: DNA Seq15 TGAAGGATGGT; experiment: FP binding assay, DNA Seq15; conditions: Seq 15 TGAAGGATGGT; 0.5 μM SMN-C2
Procedure: as §1, §2

[5] = biological target: RNA Seq18: 1:1 annealed U1 snRNA binding sequence 5′-AUACΨΨACCU and 5′ splice site 5′-GGAGGUAAGUCU; experiment: FP binding assay, dsRNA Seq18 (binding site 1 sequence); conditions: Seq 18, binding site 1 sequence (dsRNA); 0.5 μM SMN-C2
Procedure: as §1, §2

[6] = biological target: DNA S5 […]; experiment: FP binding assay, 18-nt DNA S5
Procedure: as §1, §2

[7] = biological target: DNA S6 […]; experiment: FP binding assay, 18-nt DNA S6
Procedure: as §1, §2

[8] = biological target: DNA S10 […]; experiment: FP binding assay, 18-nt DNA S10
Procedure: as §1, §2

[9] = biological target: DNA S12 […]; experiment: FP binding assay, 18-nt DNA S12
Procedure: as §1, §2

[10] = biological target: DNA S14 […]; experiment: FP binding assay, 18-nt DNA S14
Procedure: as §1, §2

[11] = biological target: DNA S15 […]; experiment: FP binding assay, 18-nt DNA S15
Procedure: as §1, §2

[12] = biological target: DNA S17 […]; experiment: FP binding assay, 18-nt DNA S17
Procedure: as §1, §2

[13] = biological target: DNA S18 […]; experiment: FP binding assay, 18-nt DNA S18
Procedure: as §1, §2

[14] = biological target: DNA S19 […]; experiment: FP binding assay, 18-nt DNA S19
Procedure: as §1, §2

[15] = biological target: DNA S24 […]; experiment: FP binding assay, 18-nt DNA S24
Procedure: as §1, §2

[16] = biological target: DNA S25 […]; experiment: FP binding assay, 18-nt DNA S25
Procedure: as §1, §2

[17] = tested on: SMN2 exon 7 splicing; experiment: Cell-based SMN2 splicing assay in 293T cells (minigene); parameters: species or system human; conditions: Homo sapiens, HEK-293T
[18] = tested on: SMN2 exon 7 minigenes with single-point mutations M1 and M2; experiment: SMN2 splicing assay with minigenes mutated in the GA-rich sequence (M1, M2) in 293T cells; assay type: cell-based, human
[19] = tested on: dsDNA formed by annealing Seq6 and its reverse complement, Seq6_RC; experiment: ITC, dsDNA (annealed Seq6 and Seq6_RC); assay type: binding; conditions: dsDNA of Seq6 and Seq6_RC
Procedure: The figures are representation of three independent experiments.
Isothermal calorimetric titrations were carried out on a Malvern Analytical MicroCal PEAQ-ITC at 25° C. The DNA (see above for the calibration procedure) and the SMN-C2 water solutions containing the desired amount of the materials were freeze-dried overnight (Labconco FreeZone 4.5 Liter Benchtop Freeze Dry System) and then re-suspended in appropriate volume of buffer containing 5% DMSO, 100 mM NaCl and 30 mM MES buffer at pH 6.0 (e.g., 350 μL for DNA Seq6, 80 μL for SMN-C2). […] The analysis was performed using the instrument's MicroCal PEAQ-ITC Analysis Software (Malvern Analytical). The ITC data was fit using the One Set of Sites mode to calculate the dissociate constant (Kd), binding stoichiometry, and the changes in enthalpy and Gibbs free energy. In differential power (DP) trace, the baseline was subtracted for better visualization, which has no impact on calculations.

Q: `CCN1CCN(c2ccc3cc(-c4cn5cc(C)nc(C)c5n4)c(=O)oc3c2)C[C@@H]1C` [SMN-C2, (S)-3-(6,8-dimethylimidazo[1,2-a]pyrazin-2-yl)-7-(4-ethyl-3-methylpiperazin-1-yl)-2H-chromen-2-one] was tested. Which Kd [1] did it give?
A: The Kd was > 100 µM.

Q: What about the Kd [2] of the same compound?
A: Its Kd is 57.3 ± 20 µM.

Q: And the Kd [3]?
A: Its Kd is 17.6 ± 3.4 µM.

Q: And the Kd [4]?
A: The Kd was 41.1 ± 4.4 µM.

Q: And the Kd [5]?
A: The Kd was 60 ± 36 µM.

Q: What about the Kd [6] of the same compound?
A: The Kd was 42.3 ± 4.2 µM.

Q: And the Kd [7]?
A: Its Kd is 33.3 ± 2.3 µM.

Q: And the Kd [8]?
A: Its Kd is 26.4 ± 2.2 µM.

Q: And the Kd [9]?
A: Its Kd is 37.4 ± 6.7 µM.

Q: And the Kd [10]?
A: Its Kd is 19.5 ± 2.3 µM.

Q: What about the Kd [11] of the same compound?
A: Its Kd is 31.4 ± 4 µM.

Q: And the Kd [12]?
A: The Kd was 16.5 ± 1.1 µM.

Q: What about the Kd [13] of the same compound?
A: The Kd was > 50 µM.

Q: And the Kd [14]?
A: Its Kd is 21 ± 1.1 µM.

Q: What about the Kd [15] of the same compound?
A: Its Kd is 36.8 ± 11.4 µM.

Q: What about the Kd [16] of the same compound?
A: The Kd was 48 ± 7.8 µM.

Q: And the EC50 ([17]; Table 3, read-out: SMN2 Splicing EC50)?
A: Its EC50 is 0.0635 ± 0.0296 µM.

Q: What about the EC50 ([17]; cell-based SMN2 splicing assay in 293T cells, read-out: SMN2 EC50) of the same compound?
A: Its EC50 is 0.26 ± 0.13 µM.

Q: And the “exon 7 inclusion” value ([18]; 1 μM, 293T cells transfected with mutated minigenes M1, M2)?
A: Its value is > 90%.

Q: And the “EC50 relative to minigene with wildtype exon 7 sequence, fold higher” value ([18]; mutated minigenes M1, M2 in 293T cells)?
A: The value was 2-3 fold.

Q: And the “binding to dsDNA (ITC)” value [19]?
A: The value was “abrogated most of the binding affinity”.
